Reference: patent US9339549B2, “Cationic graft-copolymer for drug delivery system” (priority 2013, dated 2016)
In brackets after ≈: the same amount, converted by molar mass.

Assays:
[1] = test system: NIH/3T3 cells (mouse embryonic fibroblast cell line); assay: MTT test using NIH/3T3 cells; format: cell-based; details: incubation 50 hours at 37° C.
Description: Following procedure by MTT assay of DESCRIPTION OF EMBODIMENTS (4), after incubation of NIH/3T3 cells (mouse embryonic fibroblast cell line) for 50 hours at 37° C., cell viability was examined.
This test is a quantitative colorimetric method to determine cell proliferation. It utilizes the yellow tetrazolium salt [3-(4,5-Dimethylthiazol-2-yl)-2,5-diphenyltetrazolium-bromide] which is metabolized by mitochondrial succinic dehydrogenase activity of proliferating cells to yield a purple formazan reaction product.
The formazan is then solubilized by isopropyl alcohol, and the concentration determined by optical density at 570 nm and cell survival was calculated using the following formula: Cell survival (%)=((As−Ab)/(Ac−Ab))×100
Where, As=absorbance of the sample, Ac=absorbance of the control well […] and Ab=absorbance of the blank well.
1. Plate cells into 96-well tissue culture plates. Cells should be seeded at densities of 10,000 cells per well since they will reach optimal population densities within 24 to 48 hours.
2. Carry out the experiment by adding DDMC/PTX or PTX into appropriate well. The final volume of tissue culture medium in each well is 0.1 mL, and the medium may contain up to 10% Fetal Bovine Serum.
3. Use one vial of MTT solution for each 96-well plate assay.
4. Add 10 μL MTT solution to each well. […]
7. Read absorbance at 570 nm cell survival (%)=((As−Ab)/(Ac−Ab))×100

[2] = test system: B16F10 melanoma cells; assay: Anti-tumor effects and survival in B16F10 tumor-bearing C57BL/6 mice; format: in vivo, mouse
Description: In vivo analysis for melanoma cells is investigated by C57BL/6 female mouse. Anti-tumor effects and survival rates were investigated in tumor-bearing mice.
To evaluate the anti-tumor effects of DMMC/PTX complex, tumor-bearing mice were prepared by inoculating B16F10 melanoma cells S.C onto the back of C57BL/6 female mouse (2.0×10^6 cells/mouse). At average 1885 mm^3 of tumor volume, 12 days after inoculation, paclitaxel (PTX), DMMC/PTX4 (particle size 50 nm), DMMC/PTX5 (particle size 290 nm), and […] were administrated by I.P. injection three times (at a dose of 10 mg PXL/kg, on days 12, 14, and 16). Tumor size was measured with a digital vernier caliper and the volume was calculated using the relation V (mm^3)=(a×b^2)/2 where a is the longer, and b is the shorter diameter. The survival periods also monitored at 2 day intervals.
The tumor growth inhibitory activities were evaluated using B16F10 in xeno-graft tumor-bearing C57BL/6 mice. The tumors rapidly grew in size when the mice were treated with saline and PTX. […] The mean tumor volumes increase rate in the PTX, […], DDMC/PTX4 and DDMC/PTX5 groups were 1.85, 1.84, 1.39 and 1.53, respectively.

[3] = I.P. three times, 10 mg PXL/kg on days 12, 14, 16, B16F10 tumor-bearing C57BL/6 mice

`CC(=O)O[C@H]1C(=O)[C@@]2(C)[C@H]([C@H](OC(=O)c3ccccc3)[C@]3(O)C[C@H](OC(=O)[C@H](O)[C@@H](NC(=O)c4ccccc4)c4ccccc4)C(C)=C1C3(C)C)[C@]1(OC(C)=O)CO[C@@H]1C[C@@H]2O` [control 1, paclitaxel] gave an IC50 ([1]; Mus musculus, NIH3T3, 50 h, read-out: IC50 (μg/ml), MTT) of 3 µg/mL (≈ 3.51 µM).

In the case of `CC(=O)O[C@H]1C(=O)[C@@]2(C)[C@H]([C@H](OC(=O)c3ccccc3)[C@]3(O)C[C@H](OC(=O)[C@H](O)[C@@H](NC(=O)c4ccccc4)c4ccccc4)C(C)=C1C3(C)C)[C@]1(OC(C)=O)CO[C@@H]1C[C@@H]2O` [control 2, paclitaxel], the “IC50 (μg/ml), MTT” value [1] is reported as 4.5 µg/mL (≈ 5.27 µM).

With paclitaxel [PTX] the “mean tumor volumes increase rate” value [2, 3] was 1.85, the “median survival time (50%, MST)” value [2, 3] was 176 h and the “T/C of median survival time” value ([2]; relative to serine (saline) group = 1.0) was 1.46.
